The record followed here is PubChem BioAssay (NCI).

Test systems include EKVX NSCLC; MALME-3M melanoma; CAKI-1 renal; HOP-62 NSCLC; NCI-H226 lung; HS 578T breast; HOP-92 NSCLC; MDA-MB-231 breast; A498 renal; SW-620 colon.
Common to all, as to experiment: NCI-60 cell line screen, 48 h

Values joined by “and” are separate entries in the source; they are usually repeats but may differ in a detail not shown here. Equal values may be shown once.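 Tested at 5 concentrations; 48 h exposure; 96-well plates; endpoints linearly interpolated, else capped at highest concentration. GI50: concentration for 50% inhibition of growth. The concentration for full growth arrest is given as TGI.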 Where only a bound is given, the exact number is not on record here.

`O=S(=O)(CCNCc1ccc(-c2ccc3ncnc(Nc4ccc(OCc5cccc(F)c5)c(Cl)c4)c3c2)o1)c1ccccc1`: the GI50 in the assay on EKVX NSCLC was 3.44 µM; in the assay with MALME-3M melanoma, greater than 25 µM; in the assay on CAKI-1 renal, 6.05 µM; in the assay on HOP-62 NSCLC, greater than 25 µM; in the assay with NCI-H226 lung it was greater than 25 µM; with HS 578T breast it was greater than 25 µM. Further, the GI50 with HOP-92 NSCLC was 14.9 µM; in the assay on MDA-MB-231 breast, greater than 25 µM; in the assay with A498 renal, greater than 14.6 µM; with SW-620 colon, greater than 25 µM. Also, the TGI in the assay with EKVX NSCLC, with MALME-3M melanoma, in the assay with CAKI-1 renal, in the assay with HOP-62 NSCLC, with NCI-H226 lung and in the assay with HS 578T breast was greater than 25 µM each time. The TGI in the assay on HOP-92 NSCLC, in the assay on MDA-MB-231 breast, in the assay with A498 renal and in the assay on SW-620 colon was greater than 25 µM in each case.

On to `Cc1cc(C)c2nc3nc(C)cc(C)c3c(N)c2c1`, for which the GI50 is 4.76 µM with EKVX NSCLC; 4.19 µM with MALME-3M melanoma; 1.83 µM in the assay with CAKI-1 renal; 5.26 µM with HOP-62 NSCLC; 5.4 µM in the assay with NCI-H226 lung; 12.7 µM with HS 578T breast. In addition, the GI50 was 3.23 µM in the assay with HOP-92 NSCLC, 5.17 µM with MDA-MB-231 breast, 4.67 µM in the assay on A498 renal and 3.4 µM in the assay on SW-620 colon. Moreover, the TGI in the assay with EKVX NSCLC came out at 43 µM; in the assay on MALME-3M melanoma, 16.6 µM; with CAKI-1 renal, 6.12 µM; in the assay with HOP-62 NSCLC, 25.7 µM; in the assay with NCI-H226 lung it was 24.7 µM; in the assay on HS 578T breast, 45.2 µM. In addition, the TGI was determined as 19.7 µM with HOP-92 NSCLC, 28.6 µM with MDA-MB-231 breast, 17.8 µM in the assay with A498 renal and 21.4 µM with SW-620 colon.

For the compound `COc1cc(/C=C2\C(=O)N(c3ccccc3)c3ccccc32)cc(OC)c1OC`, the GI50 with EKVX NSCLC was 23.5 µM; with MALME-3M melanoma, 18.5 µM; with CAKI-1 renal, 12.5 µM; in the assay on HOP-62 NSCLC, 15 µM; in the assay on NCI-H226 lung, 9.69 µM; in the assay with HS 578T breast it was 28.2 µM. Moreover, the GI50 in the assay with HOP-92 NSCLC is 3.71 µM; in the assay on MDA-MB-231 breast, 4.12 µM; with A498 renal, 18.1 µM; with SW-620 colon it was 5.96 µM. Moreover, the TGI is 65.6 µM in the assay with EKVX NSCLC; 46.4 µM in the assay with MALME-3M melanoma; 61.3 µM with CAKI-1 renal; 31.5 µM with HOP-62 NSCLC; 29.3 µM with NCI-H226 lung; greater than 100 µM with HS 578T breast. Further, the TGI is 20.7 µM in the assay on HOP-92 NSCLC, 26.1 µM in the assay with MDA-MB-231 breast, 38.9 µM in the assay on A498 renal and greater than 100 µM in the assay on SW-620 colon.

Consider `OCC1OC(n2cnc3c2NC=NC[C@H]3O)CC1O` (stereo not given in full), for which the TGI in the assay with EKVX NSCLC was 500 µM; in the assay with MALME-3M melanoma it was 471 µM and > 588 µM; with CAKI-1 renal it was 495 µM and > 588 µM; with HOP-62 NSCLC it was 471 µM and > 588 µM; in the assay with NCI-H226 lung, 500 µM and > 588 µM; in the assay with HS 578T breast it was greater than 500 µM. Further, the TGI is 454 µM and > 588 µM in the assay with HOP-92 NSCLC; greater than 500 µM in the assay on MDA-MB-231 breast; 481 µM and > 588 µM in the assay on A498 renal; 500 µM and > 588 µM with SW-620 colon. Besides, the GI50 with MALME-3M melanoma is greater than 588 µM; with CAKI-1 renal, 351 µM and > 588 µM; in the assay with HOP-62 NSCLC, greater than 588 µM; in the assay with NCI-H226 lung, greater than 588 µM; with HOP-92 NSCLC, greater than 588 µM; with A498 renal, greater than 588 µM. In addition, the GI50 in the assay on SW-620 colon is 478 µM and > 588 µM.

With `N=c1n(Cc2ccccc2)c(N)cc(=O)n1Cc1ccccc1`, the GI50 was 2.12 µM in the assay on EKVX NSCLC; 2.94 µM in the assay on MALME-3M melanoma; 2.94 µM in the assay on CAKI-1 renal; 1.35 µM in the assay with HOP-62 NSCLC; 3.45 µM with NCI-H226 lung; 1.04 µM in the assay with HS 578T breast. Further, the GI50 in the assay with HOP-92 NSCLC was 2.06 µM; in the assay with MDA-MB-231 breast it was 7.45 µM; in the assay on A498 renal, 5.04 µM; in the assay on SW-620 colon, 3.05 µM. The TGI worked out at 5.42 µM in the assay on EKVX NSCLC; 6.87 µM with MALME-3M melanoma; 16.6 µM with CAKI-1 renal; 2.68 µM in the assay with HOP-62 NSCLC; 9.56 µM in the assay with NCI-H226 lung; 10 µM in the assay with HOP-92 NSCLC. Also, the TGI with MDA-MB-231 breast worked out at 42.5 µM; with A498 renal it was 47.5 µM; with SW-620 colon it was 11.1 µM.

On to `S=C(c1ccc2c(c1)OCO2)N1CCN(c2cccc(Cl)c2)CC1`, for which the GI50 in the assay with EKVX NSCLC is 4.52 µM; in the assay with MALME-3M melanoma, 0.478 µM; in the assay with HOP-62 NSCLC it was 3.27 µM; with NCI-H226 lung, 14 µM; in the assay on HS 578T breast, 0.391 µM; with HOP-92 NSCLC, 95.4 µM. Moreover, the results for the GI50 in the assay with MDA-MB-231 breast, in the assay with A498 renal and with SW-620 colon were 5.73 µM, 0.424 µM and 0.404 µM, respectively. Also, the TGI in the assay on EKVX NSCLC is greater than 100 µM; in the assay with MALME-3M melanoma it was greater than 100 µM; in the assay with CAKI-1 renal, greater than 100 µM; in the assay with HOP-62 NSCLC, greater than 59.2 µM; with NCI-H226 lung, greater than 100 µM; in the assay with HS 578T breast, 3.54 µM. The TGI with HOP-92 NSCLC is greater than 100 µM; with MDA-MB-231 breast, greater than 100 µM; with A498 renal, 12.8 µM; in the assay on SW-620 colon it was greater than 100 µM.
